Article PMC5344255, “Design, Synthesis and Biochemical Evaluation of Novel Selective Estrogen Receptor Ligand Conjugates Incorporating an Endoxifen-Combretastatin Hybrid Scaffold” (Biomedicines, 2016)
“And” between values parts separate entries of the source, which are not always exact repeats. Equal values may be shown once. Marks after values point to notes of the source that are not given here.

Legend:
[1] = test system: Ishikawa cell line of human endometrial adenocarcinoma cells; assay: Ishikawa assay, estrogen stimulation of alkaline phosphatase activity; type: cell-based
Experimental: The Ishikawa assay is used to measure estrogen stimulation of alkaline phosphatase enzyme activity (AlkP) by the Ishikawa cell line of human endometrial adenocarcinoma cells. The Ishikawa assay provides a measure of the agonist activity of a compound. […] The assay was carried out following the method of Littlefield et al.. The batch of Ishikawa cells were obtained as a gift from Professor R. Hochberg—who developed the alkaline phosphatase assay in Yale University, CT, USA.
The Ishikawa assay is used to measure estrogen stimulation of alkaline phosphatase enzyme activity (AlkP) by the Ishikawa cell line of human endometrial adenocarcinoma cells. […] The conjugate was dosed in duplicate.

[2] = test system: MCF-7 human breast cancer cells; assay: MTT assay for antiproliferative effects in MCF-7; type: cell-based; settings: Homo sapiens, MCF7, MCF-7, MTT assay
How it was run: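 MCF-7 grown in MEM and MDA-MB-231 in D-MEM, each with 10% FBS, at 37 °C and 5% CO2. Viability by MTT reduction to formazan by metabolically active cells, plotted against compound concentration. Three experiments in triplicate, given as mean ± SEM.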

SR = assay: NCI 60 cell line screen; type: cell-based, human; settings: SR (Leukemia)
SF539 = assay: NCI 60 cell line screen; type: cell-based, human; settings: SF539 (CNS Cancer)
SK-MEL-28 = assay: NCI 60 cell line screen; type: cell-based, human; settings: SK-MEL-28 (Melanoma); one-dose 10 µM
PC-3 = assay: NCI 60 cell line screen; type: cell-based, human; settings: PC-3 (Prostate cancer)
UACC-62 = assay: NCI 60 cell line screen; type: cell-based, human; settings: UACC-62 (Melanoma); one-dose 10 µM
HCT-15 = assay: NCI 60 cell line screen; type: cell-based, human; settings: HCT-15 (Colon Cancer)
NCI-H226 = assay: NCI 60 cell line screen; type: cell-based, human
K-562 = assay: NCI 60 cell line screen; type: cell-based, human; settings: K-562 (Leukemia)
MDA-MB-468 = assay: NCI 60 cell line screen; type: cell-based, human; settings: MDA-MB-468 (Breast Cancer); one-dose 10 µM
KM12 = assay: NCI 60 cell line screen; type: cell-based, human; settings: KM12 (Colon Cancer)
U251 = assay: NCI 60 cell line screen; type: cell-based, human; settings: U251 (CNS Cancer)
CCRF-CEM = assay: NCI 60 cell line screen; type: cell-based, human; settings: CCRF-CEM (Leukemia)
BT-549 = assay: NCI 60 cell line screen; type: cell-based, human; settings: BT-549 (Breast Cancer); one-dose 10 µM
A549/ATCC = assay: NCI 60 cell line screen; type: cell-based, human; settings: A549/ATCC (Non-Small Cell Lung Cancer)
OVCAR-4 = assay: NCI 60 cell line screen; type: cell-based, human; settings: OVCAR-4 (Ovarian Cancer); one-dose 10 µM
RPMI-8226 = assay: NCI 60 cell line screen; type: cell-based, human; settings: RPMI-8226 (Leukemia)
NCI-H460 = assay: NCI 60 cell line screen; type: cell-based, human; settings: NCI-H460 (Non-Small Cell Lung Cancer)
NCI-H552 = assay: NCI 60 cell line screen; type: cell-based, human; settings: NCI-H552 (Non-Small Cell Lung Cancer)
[3] = test system: MDA-MB-231 human breast cancer cells; assay: Lactate dehydrogenase (LDH) cytotoxicity assay in MDA-MB-231; type: cell-based; settings: % cell lysis at 10 μM
How it was run: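 Cells seeded at 1 × 10^4 per well and grown 24 h, then dosed with compounds over 1 nM–50 μM. Cell lysis quantified as released cytoplasmic LDH using the CytoTox 96 nonradioactive cytotoxicity assay.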

UACC-257 = assay: NCI 60 cell line screen; type: cell-based, human; settings: UACC-257 (Melanoma); one-dose 10 µM

## CCC(=C(c1ccc(O)cc1)c1ccc(OCCN(C)C(=O)/C(=C/c2ccc(OC)c(O)c2)c2cc(OC)c(OC)c(OC)c2)cc1)c1ccc(O)cc1 (mixture of isomers) [Compound 28, (E)-N-(2-{4-[(E/Z)-1,2-Bis-(4-hydroxyphenyl)but-1-enyl]-phenoxy}ethyl)-3-(3-hydroxy-4-methoxyphenyl)-N-methyl-2-(3,4,5-trimethoxyphenyl)acrylamide]
[1]; compound dosed individually
  estrogenic activity (alkaline phosphatase stimulation): does not display estrogenic stimulation in the cell line
[1]; dosed with 1 nM estradiol spike
  estrogen stimulation (alkaline phosphatase) in mixture with estradiol: a reduction in estrogenic stimulation at low concentrations and a more pronounced reduction in estrogen stimulation over the range of concentrations when compared with the Tamoxifen mixture
[2]; mean of at least three experiments in triplicate
  IC50: 5 nM
[2]; values in nM
  IC50: 0.005 nM
SR; Homo sapiens, five-dose screen
  GI50: 2350 nM
SR; one-dose 10 µM
  GI% (10^−5 M): 69.03%
SF539; Homo sapiens, SF-539, five-dose screen
  GI50: 1180 nM
SF539; one-dose 10 µM
  GI% (10^−5 M): 100 ^d,n %
SK-MEL-28
  GI% (10^−5 M): 1.65%
PC-3; Homo sapiens, five-dose screen
  GI50: 1730 nM
PC-3; one-dose 10 µM
  GI% (10^−5 M): 86.32%
UACC-62
  GI% (10^−5 M): 0.922%
HCT-15; one-dose 10 µM
  GI% (10^−5 M): 100 ^d,k %
HCT-15; Homo sapiens, five-dose screen
  GI50: 1530 nM
NCI-H226; Homo sapiens, NCI-H226 (Non-Small Cell Lung Cancer), five-dose screen
  GI50: 1180 nM
NCI-H226; NCI-H226 (Non-Small Cell Lung Cancer), one-dose 10 µM
  GI% (10^−5 M): 100 ^d,g %
NCI-H226; NCI-H226, one-dose screen 10 μM
  lethality: 73%
K-562; Homo sapiens, K562, five-dose screen
  GI50: 2570 nM
K-562; one-dose 10 µM
  GI% (10^−5 M): 86.1%
MDA-MB-468
  GI% (10^−5 M): 1.12%
KM12; Homo sapiens, five-dose screen
  GI50: 1260 nM
KM12; one-dose 10 µM
  GI% (10^−5 M): 100 ^d,m %
U251; Homo sapiens, U-251, five-dose screen
  GI50: 1740 nM
U251; one-dose 10 µM
  GI% (10^−5 M): 93% and 93.37%
CCRF-CEM; one-dose 10 µM
  GI% (10^−5 M): 72.48%
CCRF-CEM; Homo sapiens, five-dose screen
  GI50: 1770 nM
BT-549
  GI% (10^−5 M): 1.12%
A549/ATCC; one-dose 10 µM
  GI% (10^−5 M): 86.97%
A549/ATCC; Homo sapiens, five-dose screen
  GI50: 2880 nM
OVCAR-4
  GI% (10^−5 M): 2.59%
RPMI-8226; Homo sapiens, five-dose screen
  GI50: 896 nM
RPMI-8226; one-dose 10 µM
  GI% (10^−5 M): 91% and 90.65%
NCI-H460; Homo sapiens, five-dose screen
  GI50: 1420 nM
NCI-H460; one-dose 10 µM
  GI% (10^−5 M): 98% and 98.38%
NCI-H552; Homo sapiens, 60 cell, five-dose screen
  GI50: 1390 nM
NCI-H552; one-dose 10 µM
  GI% (10^−5 M): 100 ^d,h %
[3]
  % Cell Death at 10 μM: 15%
UACC-257
  GI% (10^−5 M): 2.83%
